According to article PMC5421785, “Citrullination only infrequently impacts peptide binding to HLA class II MHC” (PLoS ONE, 2017):
Read-outs that look alike come from different tables or passages of the source. Square brackets hold non-standard residues; d marks the D form. Peptide text beside a SMILES is read from it. Cit = NC(=O)NCCC[C@H](N)C(=O)O

What was measured:
[1] = biological target: T1, HLA-DRB1*01:01 (Homo sapiens, UniProt P01903+P01911, A100R/D57E/F55L/F60I/F76Y/I96L/L162R/M171V/P40L/Q125E/R42F/V115G/Y59C); test: HLA class II peptide binding, inhibition of radiolabeled peptide binding to purified MHC
T1 construct: EBV transformed homozygous cell lines were used as sources of MHC molecules; endogenous in cells; host or cells: EBV transformed homozygous cell lines

[2] = biological target: T2, HLA-DRB1*04:01 (Homo sapiens, UniProt P01903+P01911, A100K/A169T/F76Y/I96L/K127E/L162R/M171V/N62H/P40V/Q125Y/R42H/S133A/S149N/S66Y/V115G/V209L/W38E); test: as above
T2 construct: EBV transformed homozygous cell lines were used as sources of MHC molecules; endogenous in cells; host or cells: EBV transformed homozygous cell lines

[3] = citrullinated 15-mer peptide (X = citrulline), purified HLA-DRB1*01:01, read-out: DRB1*01:01 binding capacity, Cit peptide (IC50 nM)
[4] = citrullinated 15-mer peptide (X = citrulline), purified HLA-DRB1*04:01, read-out: DRB1*04:01 binding capacity, Cit peptide (IC50 nM)
[5] = citrullinated peptide as listed (X at Cit position), read-out: DRB1*01:01 binding capacity Cit peptide (IC50 nM)
[6] = citrullinated peptide as listed (X at Cit position), read-out: DRB1*04:01 binding capacity Cit peptide (IC50 nM)
[7] = citrullinated 15-mer (X), purified MHC, inhibition of radiolabeled peptide binding, dash = IC50 >40,000 nM, read-out: DRB1*01:01 binding capacity, Cit peptide (IC50 nM)
[8] = citrullinated 15-mer (X), purified MHC, inhibition of radiolabeled peptide binding, dash = IC50 >40,000 nM, read-out: DRB1*04:01 binding capacity, Cit peptide (IC50 nM)

| SMILES | IC50 [1, 3] [nM] | IC50 [2, 4] [nM] | other results |
| --- | --- | --- | --- |
| CC(C)C[C@H](NC(=O)CNC(=O)[C@H](CCCNC(N)=O)NC(=O)[C@H](C)NC(=O)CNC(=O)[C@@H]1CCCN1C(=O)[C@@H](N)CC(C)C)C(=O)N[C@H](C(=O)NCC(=O)N[C@@H](CCCNC(=N)N)C(=O)N1CCC[C@H]1C(=O)NCC(=O)N[C@@H](CC(=O)O)C(=O)N[C@@H](C)C(=O)NCC(=O)O)[C@@H](C)O [LPGAXGLTGRPGDAG] (H-LPGA[Cit]GLTGRPGDAG-OH) | 2930 | > 40000 | – |
| CC[C@H](C)[C@H](NC(=O)[C@H](CC(C)C)NC(=O)[C@H](CC(C)C)NC(=O)[C@@H](NC(=O)[C@H](CCCNC(N)=O)NC(=O)[C@H](CCCCN)NC(=O)[C@H](CO)NC(=O)[C@H](Cc1c[nH]cn1)NC(=O)[C@@H](NC(=O)[C@H](CC(=O)O)NC(=O)[C@@H](NC(=O)[C@H](CC(C)C)NC(=O)[C@@H]1CCCN1C(=O)[C@@H](N)CC(C)C)C(C)C)[C@@H](C)O)[C@@H](C)O)C(=O)N[C@@H](CCCCN)C(=O)O [LPLVDTHSKXTLLIK] (H-LPLVDTHSK[Cit]TLLIK-OH) | 344 | 2590 | – |
| CSCC[C@H](NC(=O)[C@H](Cc1ccc(O)cc1)NC(=O)[C@H](CCC(N)=O)NC(=O)[C@@H](N)CC(C)C)C(=O)N[C@@H](CCCNC(=N)N)C(=O)N[C@@H](C)C(=O)N[C@@H](CC(=O)O)C(=O)N[C@@H](CCC(N)=O)C(=O)N[C@@H](C)C(=O)N[C@@H](C)C(=O)NCC(=O)NCC(=O)N[C@@H](CC(C)C)C(=O)N[C@@H](CCCNC(N)=O)C(=O)N[C@@H](CCC(N)=O)C(=O)O [LQYMRADQAAGGLXQ] (H-LQYMRADQAAGGL[Cit]Q-OH) | – | – | IC50 [1, 5]: 64 nM; IC50 [2, 6]: 83 nM |
| CSCC[C@H](NC(=O)[C@H](Cc1ccc(O)cc1)NC(=O)[C@H](CCC(N)=O)NC(=O)[C@@H](N)CC(C)C)C(=O)N[C@@H](CCCNC(N)=O)C(=O)N[C@@H](C)C(=O)N[C@@H](CC(=O)O)C(=O)N[C@@H](CCC(N)=O)C(=O)N[C@@H](C)C(=O)N[C@@H](C)C(=O)NCC(=O)NCC(=O)N[C@@H](CC(C)C)C(=O)N[C@@H](CCCNC(=N)N)C(=O)N[C@@H](CCC(N)=O)C(=O)O [LQYMXADQAAGGLRQ] (H-LQYM[Cit]ADQAAGGLRQ-OH) | – | – | IC50 [1, 5]: 16 nM; IC50 [2, 6]: 69 nM |
| CC(C)C[C@H](NC(=O)[C@@H](NC(=O)[C@H](C)NC(=O)[C@H](C)NC(=O)[C@@H](NC(=O)[C@@H](N)CC(C)C)C(C)C)C(C)C)C(=O)N[C@@H](CCCNC(N)=O)C(=O)N[C@@H](CS)C(=O)N[C@@H](CCC(N)=O)C(=O)NCC(=O)N[C@@H](CCC(N)=O)C(=O)N[C@@H](CC(=O)O)C(=O)N[C@H](C(=O)N[C@@H](CCC(N)=O)C(=O)N[C@@H](CCC(=O)O)C(=O)O)C(C)C [LVAAVLXCQGQDVQE] (H-LVAAVL[Cit]CQGQDVQE-OH) | 93 | 32700 | – |
| CC[C@H](C)[C@H](NC(=O)[C@H](CCC(=O)O)NC(=O)[C@@H](NC(=O)[C@H](CC(=O)O)NC(=O)[C@H](CC(C)C)NC(=O)[C@H](C)NC(=O)[C@@H](N)CCSC)[C@@H](C)CC)C(=O)N[C@@H](C)C(=O)N[C@H](C(=O)N[C@@H](Cc1ccc(O)cc1)C(=O)N[C@@H](CCCNC(N)=O)C(=O)N[C@@H](CCCCN)C(=O)N[C@@H](CC(C)C)C(=O)N[C@@H](CC(C)C)C(=O)N[C@@H](CCC(=O)O)C(=O)O)[C@@H](C)O [MALDIEIATYXKLLE] (H-MALDIEIATY[Cit]KLLE-OH) | 64 | 4950 | – |
| CSCC[C@H](N)C(=O)N[C@@H](C)C(=O)N[C@@H](CCCNC(=N)N)C(=O)N[C@@H](Cc1c[nH]cn1)C(=O)N[C@@H](CC(C)C)C(=O)N[C@@H](CCCNC(N)=O)C(=O)N[C@@H](CCC(=O)O)C(=O)N[C@@H](Cc1ccc(O)cc1)C(=O)N[C@@H](CCC(N)=O)C(=O)N[C@@H](CC(=O)O)C(=O)N[C@@H](CC(C)C)C(=O)N[C@@H](CC(C)C)C(=O)N[C@@H](CC(N)=O)C(=O)N[C@H](C(=O)N[C@@H](CCCCN)C(=O)O)C(C)C [MARHLXEYQDLLNVK] (H-MARHL[Cit]EYQDLLNVK-OH) | 577 | 3130 | – |
| CSCC[C@H](N)C(=O)N[C@@H](C)C(=O)N[C@@H](CCCNC(N)=O)C(=O)N[C@@H](Cc1c[nH]cn1)C(=O)N[C@@H](CC(C)C)C(=O)N[C@@H](CCCNC(=N)N)C(=O)N[C@@H](CCC(=O)O)C(=O)N[C@@H](Cc1ccc(O)cc1)C(=O)N[C@@H](CCC(N)=O)C(=O)N[C@@H](CC(=O)O)C(=O)N[C@@H](CC(C)C)C(=O)N[C@@H](CC(C)C)C(=O)N[C@@H](CC(N)=O)C(=O)N[C@H](C(=O)N[C@@H](CCCCN)C(=O)O)C(C)C [MAXHLREYQDLLNVK] (H-MA[Cit]HLREYQDLLNVK-OH) | 494 | 4320 | – |
| CC[C@H](C)[C@H](NC(=O)[C@@H](N)CCSC)C(=O)N[C@@H](CCCNC(N)=O)C(=O)N[C@@H](CC(C)C)C(=O)NCC(=O)N[C@@H](C)C(=O)N1CCC[C@H]1C(=O)N[C@@H](CCC(N)=O)C(=O)N[C@H](C(=O)N[C@@H](CC(C)C)C(=O)N[C@H](C(=O)N[C@@H](CC(C)C)C(=O)N[C@@H](CC(C)C)C(=O)N[C@H](C(=O)N[C@@H](CC(C)C)C(=O)O)[C@@H](C)O)C(C)C)[C@@H](C)O [MIXLGAPQTLVLLTL] (H-MI[Cit]LGAPQTLVLLTL-OH) | 15 | 641 | – |
| CSCC[C@H](NC(=O)[C@H](CCCNC(N)=O)NC(=O)[C@H](CCCNC(=N)N)NC(=O)[C@H](Cc1ccc(O)cc1)NC(=O)[C@H](CO)NC(=O)[C@H](CO)NC(=O)[C@H](CO)NC(=O)[C@H](CO)NC(=O)[C@@H](NC(=O)[C@H](CO)NC(=O)[C@H](CCCNC(=N)N)NC(=O)[C@@H](NC(=O)[C@H](CO)NC(=O)[C@@H](N)CCSC)[C@@H](C)O)C(C)C)C(=O)N[C@@H](Cc1ccccc1)C(=O)O [MSTRSVSSSSYRXMF] (H-MSTRSVSSSSYR[Cit]MF-OH) | – | – | IC50 [1, 7]: 672 nM; IC50 [2, 8]: 443 nM |
| CSCC[C@H](NC(=O)[C@H](CCCNC(=N)N)NC(=O)[C@H](CCCNC(N)=O)NC(=O)[C@H](Cc1ccc(O)cc1)NC(=O)[C@H](CO)NC(=O)[C@H](CO)NC(=O)[C@H](CO)NC(=O)[C@H](CO)NC(=O)[C@@H](NC(=O)[C@H](CO)NC(=O)[C@H](CCCNC(=N)N)NC(=O)[C@@H](NC(=O)[C@H](CO)NC(=O)[C@@H](N)CCSC)[C@@H](C)O)C(C)C)C(=O)N[C@@H](Cc1ccccc1)C(=O)O [MSTRSVSSSSYXRMF] (H-MSTRSVSSSSY[Cit]RMF-OH) | – | – | IC50 [1, 7]: 1080 nM; IC50 [2, 8]: 980 nM |
| CSCC[C@H](NC(=O)[C@H](CCCNC(=N)N)NC(=O)[C@H](CCCNC(=N)N)NC(=O)[C@H](Cc1ccc(O)cc1)NC(=O)[C@H](CO)NC(=O)[C@H](CO)NC(=O)[C@H](CO)NC(=O)[C@H](CO)NC(=O)[C@@H](NC(=O)[C@H](CO)NC(=O)[C@H](CCCNC(N)=O)NC(=O)[C@@H](NC(=O)[C@H](CO)NC(=O)[C@@H](N)CCSC)[C@@H](C)O)C(C)C)C(=O)N[C@@H](Cc1ccccc1)C(=O)O [MSTXSVSSSSYRRMF] (H-MST[Cit]SVSSSSYRRMF-OH) | – | – | IC50 [1, 7]: 573 nM; IC50 [2, 8]: 1080 nM |
| CC(C)C[C@H](NC(=O)[C@H](C)NC(=O)[C@H](CC(=O)O)NC(=O)[C@@H](N)CC(N)=O)C(=O)N[C@@H](CCCNC(=N)N)C(=O)N[C@@H](CCC(N)=O)C(=O)N[C@@H](C)C(=O)N[C@@H](CCCCN)C(=O)N[C@@H](CCC(N)=O)C(=O)N[C@@H](CCC(=O)O)C(=O)N[C@@H](CO)C(=O)N[C@H](C(=O)N[C@@H](CCC(=O)O)C(=O)N[C@@H](Cc1ccc(O)cc1)C(=O)N[C@@H](CCCNC(N)=O)C(=O)O)[C@@H](C)O [NDALRQAKQESTEYX] (H-NDALRQAKQESTEY[Cit]-OH) | 34200 | 39500 | – |
| CC(C)C[C@H](NC(=O)[C@H](C)NC(=O)[C@H](CC(=O)O)NC(=O)[C@@H](N)CC(N)=O)C(=O)N[C@@H](CCCNC(N)=O)C(=O)N[C@@H](CCC(N)=O)C(=O)N[C@@H](C)C(=O)N[C@@H](CCCCN)C(=O)N[C@@H](CCC(N)=O)C(=O)N[C@@H](CCC(=O)O)C(=O)N[C@@H](CO)C(=O)N[C@H](C(=O)N[C@@H](CCC(=O)O)C(=O)N[C@@H](Cc1ccc(O)cc1)C(=O)N[C@@H](CCCNC(=N)N)C(=O)O)[C@@H](C)O [NDALXQAKQESTEYR] (H-NDAL[Cit]QAKQESTEYR-OH) | 22600 | > 40000 | – |
| CC(C)C[C@H](NC(=O)[C@H](CC(N)=O)NC(=O)[C@H](CC(=O)O)NC(=O)[C@H](CCCNC(N)=O)NC(=O)[C@H](CCC(=O)O)NC(=O)[C@@H](NC(=O)[C@H](CCC(=O)O)NC(=O)[C@@H](NC(=O)[C@H](CCCNC(=N)N)NC(=O)[C@H](C)NC(=O)[C@H](CCCCN)NC(=O)[C@H](CC(=O)O)NC(=O)[C@@H](N)CC(N)=O)C(C)C)C(C)C)C(=O)N[C@@H](C)C(=O)N[C@@H](CCC(=O)O)C(=O)O [NDKARVEVEXDNLAE] (H-NDKARVEVE[Cit]DNLAE-OH) | – | – | IC50 [1, 7]: 578 nM; IC50 [2, 8]: 1410 nM |
